Assay results reported in ChEMBL document CHEMBL4699602, “Stapled and Xenopus Glucagon-Like Peptide 1 (GLP-1)-Based Dual GLP-1/Gastrin Receptor Agonists with Improved Metabolic Benefits in Rodent Models of Obesity and Diabetes” (J Med Chem, 2020).
Where a SMILES comes first, the peptide text is derived from it. [ ]: non-standard residue; d: D form. ξ: configuration not given here. αMeH = C[C@](N)(Cc1c[nH]cn1)C(=O)O; Thr(3ξ) = CC(O)[C@H](N)C(=O)O; Aib = CC(C)(N)C(=O)O

Columns and labels:
[1] = molecular target: T1, Glucagon-like peptide 1 receptor (Homo sapiens, UniProt P43220); experiment: Agonist activity at human GLP-1R expressed in HEK293 cells assessed as stimulation of cAMP accumulation incubated for 20 mins in presence of 0% HSA; type: functional, cell-based
[2] = molecular target: T1, Glucagon-like peptide 1 receptor; experiment: Agonist activity at human GLP-1R expressed in HEK293 cells assessed as stimulation of cAMP accumulation incubated for 20 mins in presence of 4.4% HSA; type: functional, cell-based
[3] = molecular target: T1, Glucagon-like peptide 1 receptor; experiment: Ratio of EC50 for agonist activity at human GLP-1R expressed in HEK293 cells in presence of 4.4% HSA to EC50 for agonist activity at human GLP-1R expressed in HEK293 cells in presence of 0% HSA; type: cell-based
[4] = molecular target: T1, Glucagon-like peptide 1 receptor; experiment: Agonist activity at human GLP-1R expressed in HEK293 cells assessed as stimulation of cAMP accumulation incubated for 20 mins; type: functional, cell-based

T1 sequence (P43220 whole entry): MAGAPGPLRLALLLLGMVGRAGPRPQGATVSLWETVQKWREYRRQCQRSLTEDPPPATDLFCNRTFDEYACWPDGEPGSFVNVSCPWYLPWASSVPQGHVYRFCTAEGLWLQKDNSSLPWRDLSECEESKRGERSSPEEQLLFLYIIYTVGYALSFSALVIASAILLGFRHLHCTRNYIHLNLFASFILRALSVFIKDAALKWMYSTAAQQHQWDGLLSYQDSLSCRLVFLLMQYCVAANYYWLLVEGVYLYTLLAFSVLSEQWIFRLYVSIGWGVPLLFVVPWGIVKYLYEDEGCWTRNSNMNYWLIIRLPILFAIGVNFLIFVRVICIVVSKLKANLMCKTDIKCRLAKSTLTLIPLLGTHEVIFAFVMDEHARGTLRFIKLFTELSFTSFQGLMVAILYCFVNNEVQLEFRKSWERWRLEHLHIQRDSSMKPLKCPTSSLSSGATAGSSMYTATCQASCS

Molecule	EC50 [4]	also measured
CC[C@H](C)[C@H](NC(=O)[C@H](CC(C)C)NC(=O)[C@H](Cc1c[nH]c2ccccc12)NC(=O)[C@H](CCC(=O)O)NC(=O)[C@@H](NC(=O)[C@H](Cc1ccccc1)NC(=O)[C@@H]1CSC2CC(=O)N(CCC(=O)NC(C(=O)NCCCCCCNC(=O)COCCOCCNC(=O)CCC(NC(=O)CCCCCCCCCCCCCCCCC(=O)O)C(=O)O)CCCCNC(=O)CCN3C(=O)CC(SC[C@H](NC(=O)[C@H](Cc4ccc(O)cc4)NC(=O)[C@H](CCC(=O)O)NC(=O)[C@@H](NC(=O)[C@@H](NC(=O)[C@H](CC(=O)O)NC(=O)[C@H](CC(N)=O)NC(=O)[C@@H](NC(=O)[C@H](Cc4ccc(O)cc4)NC(=O)[C@@H](NC(=O)CNC(=O)[C@H](CCC(=O)O)NC(=O)C(C)(C)NC(=O)[C@@H](N)Cc4c[nH]cn4)[C@@H](C)O)[C@@H](C)O)C(C)C)[C@@H](C)O)C(=O)N[C@@H](CCC(=O)O)C(=O)N[C@@H](CCC(=O)O)C(=O)N[C@@H](CCC(=O)O)C(=O)N[C@@H](C)C(=O)N[C@@H](C)C(=O)N[C@@H](CCCCN)C(=O)N1)C3=O)C2=O)[C@@H](C)CC)C(=O)N[C@@H](CCCCN)C(=O)NCC(=O)N[C@@H](CCCCN)C(=O)N1CCC[C@H]1C(=O)N[C@@H](CO)C(=O)N[C@@H](CO)C(=O)NCC(=O)N[C@@H](C)C(=O)N1CCC[C@H]1C(=O)N1CCC[C@H]1C(=O)N1CCC[C@H]1C(=O)N[C@@H](CO)C(N)=O (some centres not stated) (HELM PEPTIDE1{H.[Aib].E.G.T.Y.T.N.D.V.T.E.Y.C.E.E.E.A.A.K.C.F.I.E.W.L.I.K.G.K.P.S.S.G.A.P.P.P.S.[am]}|CHEM1{[O=C(O)CCCCCCCCCCCCCCCCC(=O)NC(CCC(=O)NCCOCCOCC(=O)NCCCCCCNC(=O)C(CCCCNC(=O)CCN1C(=O)CC([*:1])C1=O)NC(=O)CCN1C(=O)CC([*:2])C1=O)C(=O)O]}$PEPTIDE1,CHEM1,14:R3-1:R1|PEPTIDE1,CHEM1,21:R3-1:R2$$$V2.0)		EC50 [1]: 0.1 nM; EC50 [2]: 5.9 nM; Ratio EC50 [3]: 59
CC[C@H](C)[C@H](NC(=O)[C@H](CC(C)C)NC(=O)[C@H](Cc1c[nH]c2ccccc12)NC(=O)[C@H](CCC(=O)O)NC(=O)[C@@H](NC(=O)[C@H](Cc1ccccc1)NC(=O)[C@@H]1CSC2CC(=O)N(CCC(=O)NC(C(=O)NCCCCCCNC(=O)COCCOCCNC(=O)CCCCCCCCCCCCCCCCC(=O)O)CCCCNC(=O)CCN3C(=O)CC(SC[C@H](NC(=O)[C@H](Cc4ccc(O)cc4)NC(=O)[C@H](CCC(=O)O)NC(=O)[C@@H](NC(=O)[C@@H](NC(=O)[C@H](CC(=O)O)NC(=O)[C@H](CC(N)=O)NC(=O)[C@@H](NC(=O)[C@H](Cc4ccc(O)cc4)NC(=O)[C@@H](NC(=O)CNC(=O)[C@H](CCC(=O)O)NC(=O)C(C)(C)NC(=O)[C@@H](N)Cc4c[nH]cn4)[C@@H](C)O)[C@@H](C)O)C(C)C)[C@@H](C)O)C(=O)N[C@@H](CCC(=O)O)C(=O)N[C@@H](CCC(=O)O)C(=O)N[C@@H](CCC(=O)O)C(=O)N[C@@H](C)C(=O)N[C@@H](C)C(=O)N[C@@H](CCCCN)C(=O)N1)C3=O)C2=O)[C@@H](C)CC)C(=O)N[C@@H](CCCCN)C(=O)NCC(=O)N[C@@H](CCCCN)C(=O)N1CCC[C@H]1C(=O)N[C@@H](CO)C(=O)N[C@@H](CO)C(=O)NCC(=O)N[C@@H](C)C(=O)N1CCC[C@H]1C(=O)N1CCC[C@H]1C(=O)N1CCC[C@H]1C(=O)N[C@@H](CO)C(N)=O (some centres not stated) (HELM PEPTIDE1{H.[Aib].E.G.T.Y.T.N.D.V.T.E.Y.C.E.E.E.A.A.K.C.F.I.E.W.L.I.K.G.K.P.S.S.G.A.P.P.P.S.[am]}|CHEM1{[O=C(O)CCCCCCCCCCCCCCCCC(=O)NCCOCCOCC(=O)NCCCCCCNC(=O)C(CCCCNC(=O)CCN1C(=O)CC([*:1])C1=O)NC(=O)CCN1C(=O)CC([*:2])C1=O]}$PEPTIDE1,CHEM1,14:R3-1:R1|PEPTIDE1,CHEM1,21:R3-1:R2$$$V2.0)		EC50 [1]: 0.11 nM; EC50 [2]: 1.3 nM; Ratio EC50 [3]: 11.8
CCCCCCCCCCCCCCCC(=O)NCCCCCCNC(=O)C1CCCCNC(=O)CCN2C(=O)CC(SC[C@H](NC(=O)[C@H](Cc3ccc(O)cc3)NC(=O)[C@H](CCC(=O)O)NC(=O)[C@@H](NC(=O)[C@@H](NC(=O)[C@H](CC(=O)O)NC(=O)[C@H](CC(N)=O)NC(=O)[C@@H](NC(=O)[C@H](Cc3ccc(O)cc3)NC(=O)[C@@H](NC(=O)CNC(=O)[C@H](CCC(=O)O)NC(=O)C(C)(C)NC(=O)[C@@H](N)Cc3c[nH]cn3)[C@@H](C)O)[C@@H](C)O)C(C)C)[C@@H](C)O)C(=O)N[C@@H](CCC(=O)O)C(=O)N[C@@H](CCC(=O)O)C(=O)N[C@@H](CCC(=O)O)C(=O)N[C@@H](C)C(=O)N[C@@H](C)C(=O)N[C@@H](CCCCN)C(=O)N[C@H](C(=O)N[C@@H](Cc3ccccc3)C(=O)N[C@H](C(=O)N[C@@H](CCC(=O)O)C(=O)N[C@@H](Cc3c[nH]c4ccccc34)C(=O)N[C@@H](CC(C)C)C(=O)N[C@H](C(=O)N[C@@H](CCCCN)C(=O)NCC(=O)N[C@@H](CCCCN)C(N)=O)[C@@H](C)CC)[C@@H](C)CC)CSC3CC(=O)N(CCC(=O)N1)C3=O)C2=O (some centres not stated) (HELM PEPTIDE1{H.[Aib].E.G.T.Y.T.N.D.V.T.E.Y.C.E.E.E.A.A.K.C.F.I.E.W.L.I.K.G.K.[am]}|CHEM1{[CCCCCCCCCCCCCCCC(=O)NCCCCCCNC(=O)C(CCCCNC(=O)CCN1C(=O)CC([*:1])C1=O)NC(=O)CCN1C(=O)CC([*:2])C1=O]}$PEPTIDE1,CHEM1,14:R3-1:R1|PEPTIDE1,CHEM1,21:R3-1:R2$$$V2.0)		EC50 [1]: 0.098 nM; EC50 [2]: 1.8 nM; Ratio EC50 [3]: 18.4
CC[C@H](C)[C@H](NC(=O)[C@H](CC(C)C)NC(=O)[C@H](CS)NC(=O)[C@H](CCC(=O)O)NC(=O)[C@@H](NC(=O)[C@H](Cc1ccccc1)NC(=O)[C@H](CCC(=O)O)NC(=O)[C@H](CCCCN)NC(=O)[C@H](C)NC(=O)[C@H](CS)NC(=O)[C@H](CCC(=O)O)NC(=O)[C@H](CCC(=O)O)NC(=O)[C@H](CCC(=O)O)NC(=O)[C@H](CC(C)C)NC(=O)[C@H](Cc1ccc(O)cc1)NC(=O)[C@H](CCC(=O)O)NC(=O)[C@@H](NC(=O)[C@@H](NC(=O)[C@H](CC(=O)O)NC(=O)[C@H](CC(N)=O)NC(=O)[C@@H](NC(=O)[C@H](Cc1ccc(O)cc1)NC(=O)[C@@H](NC(=O)CNC(=O)[C@H](CCC(=O)O)NC(=O)C(C)(C)NC(=O)[C@@H](N)Cc1c[nH]cn1)[C@@H](C)O)[C@@H](C)O)C(C)C)[C@@H](C)O)[C@@H](C)CC)C(=O)N[C@@H](CCCCN)C(=O)NCC(=O)N[C@@H](CCCCN)C(=O)N1CCC[C@H]1C(=O)N[C@@H](CO)C(=O)N[C@@H](CO)C(=O)NCC(=O)N[C@@H](C)C(=O)N1CCC[C@H]1C(=O)N1CCC[C@H]1C(=O)N1CCC[C@H]1C(=O)N[C@@H](CO)C(N)=O (HELM PEPTIDE1{H.[Aib].E.G.T.Y.T.N.D.V.T.E.Y.L.E.E.E.C.A.K.E.F.I.E.C.L.I.K.G.K.P.S.S.G.A.P.P.P.S.[am]}$$$$V2.0)	0.13 nM	
CC[C@H](C)[C@H](NC(=O)[C@H](CC(C)C)NC(=O)[C@H](CS)NC(=O)[C@H](CCC(=O)O)NC(=O)[C@@H](NC(=O)[C@H](Cc1ccccc1)NC(=O)[C@H](CCC(=O)O)NC(=O)[C@H](CCCCN)NC(=O)[C@H](C)NC(=O)[C@H](CS)NC(=O)[C@H](CCC(=O)O)NC(=O)[C@H](CCC(=O)O)NC(=O)[C@H](CCC(=O)O)NC(=O)[C@H](CC(C)C)NC(=O)[C@H](Cc1ccc(O)cc1)NC(=O)[C@H](CCC(=O)O)NC(=O)[C@@H](NC(=O)[C@@H](NC(=O)[C@H](CC(=O)O)NC(=O)[C@H](CC(N)=O)NC(=O)[C@@H](NC(=O)[C@H](Cc1ccc(O)cc1)NC(=O)[C@@H](NC(=O)CNC(=O)[C@H](CCC(=O)O)NC(=O)C(C)(C)NC(=O)[C@@H](N)Cc1c[nH]cn1)[C@@H](C)O)[C@@H](C)O)C(C)C)[C@@H](C)O)[C@@H](C)CC)C(=O)N[C@@H](CCCCN)C(=O)NCC(=O)N[C@@H](CCCCN)C(N)=O (HELM PEPTIDE1{H.[Aib].E.G.T.Y.T.N.D.V.T.E.Y.L.E.E.E.C.A.K.E.F.I.E.C.L.I.K.G.K.[am]}$$$$V2.0)	0.33 nM	
H-H[Aib]EGTYTNDVCEYLEEECAKEFIEWLIKGKPSSGAPPSKKKKKK-NH2 (cysteines drawn unpaired)	0.13 nM	
H-H[Aib]EGTYTNDVTECLEEEAACEFIEWLIKGKPSSGAPPSKKKKKK-NH2 (cysteines drawn unpaired)	0.16 nM	
H-H[Aib]EGTYTNDVTEYLCEEAAKECIEWLIKGKPSSGAPPSKKKKKK-NH2 (cysteines drawn unpaired)	0.17 nM	
H-H[Aib]EGTYTNDVTEYLECEAAKEFCEWLIKGKPSSGAPPSKKKKKK-NH2 (cysteines drawn unpaired)	0.12 nM	
H-H[Aib]EGTYTNDVTEYLEEEAACEFIEWLCKGKPSSGAPPSKKKKKK-NH2 (cysteines drawn unpaired)	0.23 nM	
H-H[Aib]EGTYTNDVTEYLEEEAAKECIEWLIKCKPSSGAPPSKKKKKK-NH2 (cysteines drawn unpaired)	0.13 nM	
H-H[Aib]EGTYTNDVTEYLEEEACKEFIEWCIKGKPSSGAPPSKKKKKK-NH2 (cysteines drawn unpaired)	0.15 nM	
H-H[Aib]EGTYTNDVTEYLEEECAKEFIECLIKGKPSSGAPPSKKKKKK-NH2 (cysteines drawn unpaired)	0.1 nM	
H-H[Aib]EGTY[Thr(3ξ)]NDV[Thr(3ξ)]EYLEECAAKEFICWLIKGKPSSGAPPSKKKKKK-NH2 (cysteines drawn unpaired)	0.073 nM	
H-H[Aib]EG[Thr(3ξ)]YTNDVTEYLEEEAAKEFCEWLIKGCPSSGAPPSKKKKKK-NH2 (cysteines drawn unpaired)	0.23 nM	
H-[αMeH]AEGTYTNDVTCYLEEEACKEFIEWLIKGKPSSGAPPSKKKKKK-NH2 (cysteines drawn unpaired)	0.11 nM	
